The test system of this test is Synoviocytes derived from a rheumatoid arthritis patient. Description: Growth of synoviocytes measured by MTT assay. Format: cell-based, human. The note with it: genistein 1.5, 3, 6, 12.5 and 25 μg/ml, 7 days culture, FIG. 2. In general terms: Formazan colour is commonly taken as a measure of viable cells.

Protocol: That is, synoviocytes obtained from a rheumatoid arthritis patient by surgery were minced, followed by enzyme treatment in RPMI1640 medium containing collagenase (4 mg/ml) at 37° C. for 4 hours to loosen the cells. The obtained cells were cultured in a growth medium (RPMI1640 containing 10% fetal calf serum) in a humidified CO2 incubator (5% CO2), with replacement of the growth medium at intervals of 3 to 4 days. When the cells grew to be subconfluent, the cells were subcultured at the ratio of 1:2 to 1:4 (that is, the cells were collected, transferred into other culture flasks in 1/2 to 1/4 portions and cultured in a fresh growth medium). Subculturing was repeated for 7 to 15 passages and the resulting cells were used in the following experiments.
The growth of synoviocytes was measured by the assay using MTT [3,(4,5-dimethylthiazol-2-yl)2,5-diphenyl-tetrazolium bromide]
Synoviocytes derived from a rheumatoid arthritis patient which were prepared in the same manner as in Example 1 were seeded on a 96-well microplate in an amount of 5×10^3 cells/well and precultured in the growth medium at 37° C. overnight. […] Then, 100 μl of dimethyl sulfoxide was added to dissolve the fomazan complex and the absorbance at the wavelength of 590 nm was measured with 96-well multiscanner Immno-Mini (Japan Inter Med) as the degree of cell growth. […]

Turning to `O=c1c(-c2ccc(O)cc2)coc2cc(O)cc(O)c12` [genistein], the “growth of synoviocytes (absorbance at 590 nm, MTT)” value is recorded as “inhibited in a manner dependent on the genistein concentration”.

For the origin of these results see US20060188501A1, “Diagnostic and therapeutic agents for rheumatoid arthritis” (Kyowa Hakko Kogyo Co., Ltd., priority 2000, published 2006).
